This is an account of results in the supplement of paper PMC10307832.

Common to all, as to assay: relative viability (nuclei count vs DMSO), 5 days (fraction); higher = more cells survive
Compound in the experiment “Trametinib + Bortezomib”: CC(=O)Nc1cccc(-n2c(=O)n(C3CC3)c(=O)c3c(Nc4ccc(I)cc4F)n(C)c(=O)c(C)c32)c1 [Trametinib] + CC(C)C[C@H](NC(=O)[C@H](Cc1ccccc1)NC(=O)c1cnccn1)B(O)O [Bortezomib] (partner 0.002 µM)
In short, it runs like this:
(§1)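 Relative viability equals treated-well nuclei counts divided by vehicle-well nuclei counts. Counts came from 4× images of lung cancer cell lines grown in 1536-well plates for 5 days after pin-tool dosing on the day after seeding. Dosing used one drug alone or a fixed anchor-drug dose plus five library-drug doses (not always all listed) in √10 steps, and values are medians of duplicate plates.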

Compound in experiment [1]: CN1C=C(C2=CC=CC=C21)/C=C\3/C4=C(C=CC=N4)NC3=O + O=C(CCCCCCC(=O)Nc1ccccc1)NO [Vorinostat] (partner 1 µM)
In short, it runs like this: as §1

Compound in experiment [2]: CN1C=C(C2=CC=CC=C21)/C=C\3/C4=C(C=CC=N4)NC3=O + COc1cccc2cc(-c3nc([C@H]4CC[C@H](C(=O)O)CC4)n4ncnc(N)c34)[nH]c12 [OSI-027] (partner 0.5 µM)
In short, it runs like this: as §1

Compound in the experiment “Trametinib + Luminespib”: CC(=O)Nc1cccc(-n2c(=O)n(C3CC3)c(=O)c3c(Nc4ccc(I)cc4F)n(C)c(=O)c(C)c32)c1 [Trametinib] + CCNC(=O)c1noc(-c2cc(C(C)C)c(O)cc2O)c1-c1ccc(CN2CCOCC2)cc1 [Luminespib] (partner 0.01 µM)
In short, it runs like this: as §1

On to UMC-11, for which the relative viability with Trametinib + Bortezomib (first compound 0.0025 µM) was 0.777; in the experiment with Trametinib + Bortezomib (first compound 0.007906 µM) it was 0.836; with Trametinib + Bortezomib (first compound 0.025 µM), 0.254; with Trametinib + Bortezomib (first compound 0.07906 µM), 0.837; with Trametinib + Bortezomib (first compound 0.25 µM), 0.663; in experiment [1] (first compound 0.02 µM) it was 0.323. For the same cell line, the relative viability in experiment [1] (first compound 0.06325 µM) stood at 0.301; in experiment [1] (first compound 0.2 µM), 0.322; in experiment [1] (first compound 0.6325 µM) it was 0.391; in experiment [1] (first compound 2 µM), 0.36; in experiment [2] (first compound 0.02 µM), 0.513; in experiment [2] (first compound 0.06325 µM), 0.49. Further, the relative viability was determined as 0.461 in experiment [2] (first compound 0.2 µM); 0.536 in experiment [2] (first compound 0.6325 µM); 0.494 in experiment [2] (first compound 2 µM); 1.05 in the experiment with Trametinib + Luminespib (first compound 0.0025 µM); 1.08 in the experiment with Trametinib + Luminespib (first compound 0.007906 µM); 0.951 with Trametinib + Luminespib (first compound 0.025 µM). Also, the results for the relative viability in the experiment with Trametinib + Luminespib (first compound 0.07906 µM) and in the experiment with Trametinib + Luminespib (first compound 0.25 µM) were 1.04 and 0.945, respectively.
